Measured values as given in PMC9363195, “Preclinical Pharmacokinetics, Biodistribution, and Acute Toxicity Evaluation of Caerin 1.9 Peptide in Sprague Dawley Rats” (Evidence-based Complementary and Alternative Medicine : eCAM, 2022).
Several values for one entry are separate records, joined by “and”; a condition that tells them apart may be missing. Equal values may be shown once. Read-outs that look alike come from different tables or passages of the source. Peptide text beside a SMILES is read from it.

Assay: Pharmacokinetics of repeated subcutaneous injection of F3 (10.0 mg/kg daily, 14 days)
Assay type: in vivo, Sprague Dawley rats
Conditions: for accumulation in plasma: after 14 days of repeated s.c. injection at 10.0 mg/kg; for CL/F: read-out: Cl_F_obs (clearance rate) (converted)
Protocol: The first day of F3 administration was recorded as day 1. At least 0.5 ml blood samples were obtained alternatively from 3M/3F rats at pre- and post-F3 injection time periods (0, 0.5, 1, 2, 4, 6, 8, and 24 hr).
The concentration of F3 in rat plasma was determined by liquid chromatography-tandem mass spectrometry, using the method established by Kanglong Huacheng Co., Ltd. The analyte was assayed by liquid chromatography coupled with the tandem mass spectrometry (LC-MS/MS) method. The LC-MS/MS system consisted of a Shimadzu HPLC system (Kyoto, Japan) and an LCMS-8060 instrument (serial no. 011105500332 AE). The following were the LC conditions: column, HALO ES-C18 2.7 µ C18 160A (50 × 2.1 mm); gradient elution at 0.5 mL/min with 5% acetonitrile in water containing 0.1% formic acid or 95% acetonitrile in water containing 0.1% formic acid; and injection volume of 10 µL. A multiple reaction monitoring (MRM) method was selected for quantitative analysis. For analyte and internal standard, the optimum transitions were 519.50 > 129.15 (five charges) and 649.15 > 120.10 (four charges), 393.20 > 373.25, and 237.15 > 194.15, respectively. The instrumental parameters were set as follows: nebulizing gas flow was 3 L/min; heating gas flow was 10 L/min; interface temperature was 300°C; DL temperature was 250°C; and heat block temperature was 400°C.
PK parameters were estimated by a noncompartmental model with the calculation model of “Linear Trapezoidal Linear Interpolation” using WinNonlin (Phoenix TM, version 8.1). If the plasma F3 was detected, the following pharmacokinetic parameters were measured and calculated: Cmax (maximum blood concentration), Tmax (peak time), T1/2 (elimination half-life), AUC (area under plasma concentration-time curve), Vz_F_obs (apparent distribution volume), Cl_F_obs (clearance rate), and MRTInf_obs (mean residence time).

[1] = female SD rats, s.c. 10.0 mg/kg daily x14 d, 14th dose, plasma, LC-MS/MS
[2] = female, Sprague-Dawley, rat, plasma, sc, 10 mg/kg, female SD rats, s.c. 10.0 mg/kg daily x14 d, 1st dose, LC-MS/MS
[3] = female, Sprague-Dawley, rat, plasma, sc, 10 mg/kg, female SD rats, s.c. 10.0 mg/kg daily x14 d, 14th dose, LC-MS/MS
[4] = male, Sprague-Dawley, rat, plasma, sc, 10 mg/kg, male SD rats, s.c. 10.0 mg/kg daily x14 d, 1st dose, LC-MS/MS
[5] = male, Sprague-Dawley, rat, plasma, sc, 10 mg/kg, male SD rats, s.c. 10.0 mg/kg daily x14 d, 14th dose, LC-MS/MS

Structure (SMILES): CC[C@H](C)[C@H](NC(=O)[C@H](CO)NC(=O)CNC(=O)[C@H](CC(C)C)NC(=O)[C@@H](NC(=O)CNC(=O)[C@H](Cc1ccccc1)NC(=O)[C@H](CC(C)C)NC(=O)CN)C(C)C)C(=O)N[C@@H](C)C(=O)N[C@@H](CCCCN)C(=O)N[C@@H](Cc1c[nH]cn1)C(=O)N[C@H](C(=O)N[C@@H](CC(C)C)C(=O)N1CCC[C@H]1C(=O)N[C@@H](Cc1c[nH]cn1)C(=O)N[C@H](C(=O)N[C@H](C(=O)N1CCC[C@H]1C(=O)N[C@H](C(=O)N[C@H](C(=O)N[C@@H](C)C(=O)N[C@@H](CCC(=O)O)C(=O)N[C@@H](CCCCN)C(=O)N[C@@H](CC(C)C)C(N)=O)[C@@H](C)CC)C(C)C)C(C)C)C(C)C)C(C)C [F3, Caerin 1.9] (H-GLFGVLGSIAKHVLPHVVPVIAEKL-NH2)
- accumulation in plasma (SD rats, 10 mg/kg): no F3 accumulation
- accumulation in plasma (SD rats, listed as Caerin 1.9, 10 mg/kg): no accumulation
- Tmax (SD rats, s.c., over single 1.0 mg/kg and repeated 10.0 mg/kg groups): between half an hour and one hour
- AUC_%Extrap_obs (female SD rats, s.c. 10.0 mg/kg daily x14 d, 1st dose, plasma, LC-MS/MS): 1.48%
- T max (female SD rats, s.c. 10.0 mg/kg daily x14 d, 1st dose, plasma, LC-MS/MS, 10 mg/kg): 1 h and 1.00 h
- AUC_%Extrap_obs [1]: 0.658%
- T max [1]: 1.00 h
- AUC(0-inf) (female, Sprague Dawley, rat, plasma, sc, 10 mg/kg, female SD rats, s.c. 10.0 mg/kg daily x14 d, 14th dose, LC-MS/MS): 1110 ng·h/mL
- AUC(0-inf) [2]: 751 ng·h/mL
- AUC(0-t) [2]: 740 ng·h/mL
- Cmax [2]: 256 ng/mL
- half-life [2]: 1.33 h
- CL/F (female, Sprague-Dawley, rat, plasma, sc, 10 mg/kg, female SD rats, s.c. 10.0 mg/kg daily x14 d, 1st dose, plasma, LC-MS/MS): 222 mL/min/kg
- MRT (female, Sprague-Dawley, rat, plasma, sc, 10 mg/kg, female SD rats, s.c. 10.0 mg/kg daily x14 d, 1st dose, plasma, LC-MS/MS, read-out: MRTInf_obs (mean residence time)): 2.96 h
- AUC(0-t) [3]: 1100 ng·h/mL
- Cmax [3]: 496 ng/mL
- half-life [3]: 1.03 h
- CL/F (female, Sprague-Dawley, rat, plasma, sc, 10 mg/kg, female SD rats, s.c. 10.0 mg/kg daily x14 d, 14th dose, plasma, LC-MS/MS): 150 mL/min/kg
- MRT at 14 days (female, Sprague-Dawley, rat, plasma, sc, 10 mg/kg, female SD rats, s.c. 10.0 mg/kg daily x14 d, 14th dose, plasma, LC-MS/MS, read-out: MRTInf_obs (mean residence time)): 1.91 h
- AUC_%Extrap_obs (male SD rats, s.c. 10.0 mg/kg daily x14 d, 1st dose, plasma, LC-MS/MS): 0.807%
- T max (male SD rats, s.c. 10.0 mg/kg daily x14 d, 1st dose, plasma, LC-MS/MS, 10 mg/kg): 1 h
- AUC_%Extrap_obs (male SD rats, s.c. 10.0 mg/kg daily x14 d, 14th dose, plasma, LC-MS/MS): 0.365%
- AUC(0-inf) [4]: 1910 ng·h/mL
- AUC(0-t) [4]: 1890 ng·h/mL
- Cmax [4]: 591 ng/mL
- half-life [4]: 4.58 h
- CL/F (male, Sprague-Dawley, rat, plasma, sc, 10 mg/kg, male SD rats, s.c. 10.0 mg/kg daily x14 d, 1st dose, plasma, LC-MS/MS): 87.5 mL/min/kg
- Tmax (male, Sprague-Dawley, rat, plasma, sc, 10 mg/kg, male SD rats, s.c. 10.0 mg/kg daily x14 d, 1st dose, plasma, LC-MS/MS, read-out: T max): 1 h
- AUC(0-inf) [5]: 1270 ng·h/mL
- AUC(0-t) [5]: 1270 ng·h/mL
- Cmax [5]: 527 ng/mL
- half-life [5]: 0.894 h
- CL/F (male, Sprague-Dawley, rat, plasma, sc, 10 mg/kg, male SD rats, s.c. 10.0 mg/kg daily x14 d, 14th dose, plasma, LC-MS/MS): 131 mL/min/kg
- MRT at 14 days (male, Sprague-Dawley, rat, plasma, sc, 10 mg/kg, male SD rats, s.c. 10.0 mg/kg daily x14 d, 14th dose, plasma, LC-MS/MS, read-out: MRTInf_obs (mean residence time)): 2.06 h
- Tmax (male, Sprague-Dawley, rat, plasma, sc, 10 mg/kg, male SD rats, s.c. 10.0 mg/kg daily x14 d, 14th dose, plasma, LC-MS/MS, read-out: T max): 0.5 h
